Three compounds from patent US3954769A, “Dibenzo[b,f]thiepins” (Hoffman-La Roche Inc., priority 1973, dated 1976) can be followed below.

Data set [1] has as its system homovanillinic acid (turnover of dopamine in the basal ganglions). As to the kind of experiment: Determination of homovanillinic acid (HVA), turnover of dopamine in brain. The class given is in vivo, rats. Conditions: for Increase in HVA, %: rats, two hours prior to being killed, titer in untreated rats set at 100%; for activity in HVA test (in words): compared with chlorpromazine. The method, then: II. Determination of Homovanillinic Acid
Two hours prior to being killed, rats are injected with the test substance.
Thereafter, the homovanillinic acid is extracted from the supernatant portion of a homogenous mixture of the brains into butyl acetate and later into aqueous solution and is oxidized with potassium ferric cyanide to a fluorescent dimer. […] The homovanillinic acid titer in untreated rats is arbitrarily set at 100%.

The subject of the next data set is rats. As to the kind of experiment: Determination of cataleptic effect (undesired side effect). The class given is in vivo. Conditions: in words. The method, then: (§1) I. Determination of cataleptic effect (undesired side effect)
(§2) A cataleptic effect ("wax-like rigidity", that is, abnormally long retention of an enforced body position) is considered to be a disturbing side effect with central depressants and neuroleptically active compounds and indicates motor disturbances. […] The following compounds were tested:
(§3) The test animals are considered to be cataleptic when the homolateral extremities remain in the crossed position for at least 10 seconds. The number of cataleptic animals is recorded every 30 minutes over a 6-hour period. The ED50 is the dose at which 50% of the animals are cataleptic.

Experiment in data set [2]: as above
The class given is in vivo, rats. Conditions: rat, in vivo, ip; rats, intraperitoneally; recorded every 30 minutes over a 6-hour period; read-out: ED50 (dose at which 50% of the animals are cataleptic). As for the experimental part:
as §1, §2, §3

Data set [3] in a line: Determination of toxicity in mice (24-hour-values). The class given is in vivo. To be noted: mouse, in vivo, po, read-out: ED50 (toxicity). The source says: (§4) III. Determination of toxicity
The next data set deals with mice. In words: Determination of toxicity in mice (24-hour-values). To be noted: in words. The class given is in vivo.
Description: as §4

Entries after “also recorded” stand apart in the source; their conditions may differ.

With `CN(C)CCCN1c2ccccc2Sc2ccc(Cl)cc21` [Chlorpromazine, reference compound], the “Increase in HVA, %” value in data set [1] (20 mg/kg. p.o.) is 320%. In addition, the “cataleptic effect (in words)” value in the data set on rats is recorded as “does demonstrate cataleptic effects”.
As for `COc1ccc2c(c1)CC(N1CCN(C)CC1)c1cc(SC)ccc1S2.O=C(O)/C=C\C(=O)O` (centres unmarked) [Product A, 1-[10,11-dihydro-2-methoxy-8-(methylthio)-dibenzo[b,f]thiepin-10-yl]-4-methylpiperazine maleate], the “activity in HVA test (in words)” value in data set [1] is on record as “somewhat less active than chlorpromazine”. The “Increase in HVA, %” value in data set [1] (50 mg/kg. p.o.) amounted to 185%. The “cataleptic effect (in words)” value in the data set with rats (maleate) is “no cataleptic effect; also recorded: complete absence of cataleptic side effect”. Also, in data set [2], the TD50 at 6 h is more than 100 mg/kg. The LD50 at 24 h in data set [3] stood at 1880 mg/kg. In addition, in the data set on mice, the “toxicity (in words)” value is given as “superior to chlorpromazine”.
Turning to `CSc1ccc2c(c1)C(N1CCN(C)CC1)Cc1cc(C)ccc1S2.O=C(O)/C=C\C(=O)O` (centres unmarked) [Product B, 1-[10,11-dihydro-2-methyl-8-(methylthio)-dibenzo[b,f]thiepin-10-yl]-4-methylpiperazine maleate], the “activity in HVA test (in words)” value in data set [1] is on record as “nearly as potent as that of chlorpromazine”. For the same compound, the “Increase in HVA, %” value in data set [1] (50 mg/kg. p.o.) is 320%. In addition, in the data set with rats (maleate), the “cataleptic effect (in words)” value is given as “considerably lower cataleptic effect than chlorpromazine; also recorded: superior to chlorpromazine due to the lower cataleptic side effect”. Also, the TD50 at 6 h in data set [2] came out at 25 mg/kg. In data set [3], the LD50 at 24 h was 450 mg/kg. Also, the “toxicity (in words)” value in the data set on mice is recorded as “superior to chlorpromazine”.
